Assay results reported in PMC8476055, “Synthesis and Biological Activity of Triterpene–Coumarin Conjugates” (Journal of Natural Products, 2021).

Columns and labels:
Hep G2 cells = assay: Cell-cycle distribution by PI flow cytometry, Hep G2; format: cell-based, human; settings: Hep G2, 72 h at IC50 concentration
Description: (§1) Based on the cytotoxicity shown by derivatives 1, 4, 7, and 10, a study was made concerning their effects on the distribution of the cell cycle in order to determine possible cytostatic effects caused by the cytotoxic response. The percentages of cells in the different phases of the cycle were analyzed at 72 h, by the incorporation of propidium iodide. […] The values of cell percentage were expressed as means ± SEM of at least two independent experiments performed in triplicate. Flow cytometry was also used to measure DNA ploidy and alterations in cell-cycle profiles. The DNA content is proportional to the fluorescence of propidium iodide, enabling the percentage of cells to be determined in each phase of the cycle and the cell subpopulations with different DNA contents to be visualized.
(§2) The method used to quantify the amount of DNA in the different phases of the cell cycle (G0/G1, S, and G2/M) was performed by flow cytometry, using a fluorescence-activated cell sorter (FACS) at 488 nm in an Epics XL flow cytometer (Coulter Corporation, Hialeah, FL, USA). For this assay, 5 × 10^4 B16–F10, 6 × 10^4 HT29 cells, and 15 × 10^4 Hep G2 cells were placed in 24-well plates with 1.5 mL of medium and incubated for 24 h. After this time, the cells were treated with the different selected compounds for 72 h at their corresponding IC50 concentrations. After treatment, the cells were washed twice with PBS, trypsinized, and resuspended in 1X TBS (10 mM Tris and 150 mM NaCl); thereafter, Vindelov buffer (100 mM Tris, 100 mM NaCl, 10 mg/mL Rnase, and 1 mg/mL PI, at pH 8) was added. Cells were stored on ice and, just before measurement, were stained with 10 μL of 1 mg/mL PI solution. Approximately, 10 × 10^3 cells were analyzed in each experiment. The experiments were performed three times with two replicates per assay.

HT29 cells [1] = assay: Mitochondrial-membrane potential (Rh123) flow cytometry, HT29; format: cell-based, human; settings: HT29, 72 h at IC50 concentration
Description: The study of the loss of the mitochondrial-membrane potential (MMP) of tumor cells, when treated with drugs, can provide information on the activation mechanism of apoptosis. This activation can occur extrinsically when MMP is not altered, and intrinsically when a loss of this potential is caused by mitochondrial disruption. […] The values of percentage of cell population were expressed as means ± SEM of at least two experiments in duplicate. Changes in MMP were analyzed by monitoring cell fluorescence after staining with rhodamine 123 (Rh123).
The electrochemical gradient across the mitochondrial membrane was examined by analytical flow cytometry, using dihydrorhodamine (DHR), which in contact with living cells, oxidized to form highly fluorescent rhodamine 123 (Rh123). The fluorescence emitted can be monitored by fluorescence spectroscopy using excitation and emission wavelengths of 500 and 536 nm, respectively. […] Following treatment, the culture medium was renewed with fresh medium by adding 0.5 mL of DHR, for a final concentration of […]. Cells were incubated for 1 h at 37 °C in an atmosphere of 5% CO2 and 95% humidity and subsequently washed and resuspended in PBS. The fluorescence intensity was measured using a FACScan flow cytometer (fluorescence-activated cell sorter). The experiments were performed three times with two replicates per assay.

HT29 cells [2] = assay: Cell-cycle distribution by PI flow cytometry, HT29; format: cell-based, human; settings: HT29, 72 h at IC50 concentration
Description: as §1, §2

B16–F10 cells = assay: Cell-cycle distribution by PI flow cytometry, B16–F10; format: cell-based, murine; settings: B16–F10, 72 h at IC50 concentration
Description: as §1, §2

[3] = MTT assay, nontumor WRL68 cells; format: cell-based, human; settings: human, WRL68 normal embryo liver cells; at the compound's IC50 concentration for Hep G2 cancer cells
Description: (§3) Only MA conjugates 7 and 10 were selected to compare the growth inhibitory effects in the three nontumor cell lines (HPF, IEC-18, and WRL68) versus the three cancer cell lines (B16–F10, HT29, and Hep G2). Therefore, the cytotoxic effects on B16–F10 murine melanoma cells were compared with those of HPF normal human epithelial lung fibroblasts, with similar tissue. Similarly, the cytotoxic effects of these conjugates on HT29 colon cancer cells and Hep G2 hepatoma cells were compared with those of nontumor cells of the same tissue, such as IEC-18 normal rat ileum cells and WRL68 normal human embryo liver cells, respectively.
(§4) […] ATTC HTB-38), Hep G2 human hepatocyte carcinoma cells (ECACC 85011430), nontumor human epithelial lung fibroblast cells HPF (ScienCell catalog (cat.) no. 3300), nontumor rat ileum cells IEC-18 (ECACC no. 88011801), and nontumor human embryo liver cells (ECACC 89121403) were cultured in DMEM medium supplemented with 2 mM glutamine, 10% heat-inactivated fetal bovine serum (FCS), 10.000 units/mL penicillin, and […]. These cells were incubated at 37 °C in an atmosphere of 5% CO2 and 95% humidity. The culture media were changed every 48 h, and the confluent cultures were separated with a trypsin solution (0.25% EDTA). Subconfluent monolayer cells were used in all experiments. All cell lines used were provided by the cell bank of the University of Granada (Spain).
(§5) The effect of the synthesized compounds on the viability of tumor cells was assessed using an MTT assay, based on the ability of living cells to cleave the tetrazolium ring, thus producing formazan, which absorbs at 570 nm. The MA conjugates (1–12) were assayed against the selected cancer cell lines. For an evaluation of the cytotoxic effects of these compounds, the cells were seeded in 96-well plates at an initial density of 5 × 10^3 B16–F10 cells, 6 × 10^3 HT29 cells, 15 × 10^3 Hep G2 cells, 8 × 10^3 HPF cells, 15 × 10^3 IEC-18 cells, and 11 × 10^3 WRL68 cells, per well. After incubation for 24 h, the cells were treated with the synthesized compounds in triplicate, at different concentrations (0–200 μg/mL), and incubated for 72 h. Thereafter, 100 μL of MTT solution (0.5 mg/mL) were added to each well. After 2 h of incubation, the cells were washed twice with phosphate buffered saline (PBS), and the formazan was resuspended in 100 μL of DMSO. Relative cell viability, with respect to untreated control cells, was measured by absorbance at 550 nm on an ELISA plate reader (Tecan Sunrise MR20-301, TECAN, Austria). […] These experiments were measured and compared to the control after 72 h of treatment.

[4] = tested on: WRL68 normal human embryo liver cells; assay: MTT assay, nontumor WRL68 cells; format: cell-based; settings: Homo sapiens, WRL68; MTT, untreated control = 100% viability; read-out: IC50, growth inhibition of WRL68 non-tumor cells
Description: as §3, §4, §5

[5] = MTT assay, nontumor IEC-18 cells; format: cell-based, rat; settings: rat, IEC-18 normal ileum cells; at the compound's IC50 concentration for HT29 cancer cells
Description: as §3, §4, §5

[6] = tested on: IEC-18 normal rat ileum cells; assay: MTT assay, nontumor IEC-18 cells; format: cell-based; settings: Rattus norvegicus, IEC-18; MTT, untreated control = 100% viability; read-out: IC50, growth inhibition of IEC-18 non-tumor cells
Description: as §3, §4, §5

SMILES	percentage of cells in the G0/G1 phase (Hep G2 cells)	Rh123 staining (mitochondrial-membrane potential) (HT29 cells [1])	melting point [°C]	percentage of cells in the G0/G1 phase (HT29 cells [2])	percentage of cells in the G0/G1 phase (B16–F10 cells)	viability at 72 h [3] [%]	IC50 [4] [µM]	viability at 72 h [5] [%]	IC50 [6] [µM]
CC1(C)CC[C@]2(C(=O)NCCCNC(=O)/C=C/c3ccc(O)cc3)CC[C@]3(C)C(=CC[C@@H]4[C@@]5(C)C[C@@H](O)[C@H](O)C(C)(C)[C@@H]5CC[C@]43C)[C@@H]2C1 [Compound 7, 2α,3β-Dihydroxy-N-(3′-((E)-3″-(4‴-hydroxyphenyl)acrylamido)propyl)olean-12-en-28-amide]	greater than 70%	positive Rh123 staining	123 to 125	greater than 70%	greater than 70%	61.4 ± 1.3	16.3 ± 0.9	88 ± 0.6	19.6 ± 0.3
CC1(C)CC[C@]2(C(=O)NCCCNC(=O)c3cc4ccccc4oc3=O)CC[C@]3(C)C(=CC[C@@H]4[C@@]5(C)C[C@@H](O)[C@H](O)C(C)(C)[C@@H]5CC[C@]43C)[C@@H]2C1 [Compound 1, 2α,3β-Dihydroxy-N-(3′-(2″-oxo-2″H-chromene-3″-carboxamido)propyl)olean-12-en-28-amide]	greater than 70%	positive Rh123 staining	69 to 71						
CC1(C)CC[C@]2(C(=O)NCCCNC(=O)Cc3cc(=O)oc4cc(O)ccc34)CC[C@]3(C)C(=CC[C@@H]4[C@@]5(C)C[C@@H](O)[C@H](O)C(C)(C)[C@@H]5CC[C@]43C)[C@@H]2C1 [Compound 4, 2α,3β-Dihydroxy-N-(3′-(2″-(7‴-hydroxy-2‴-oxo-2‴H-chromen-4‴-yl)acetamido)propyl)olean-12-en-28-amide]	greater than 70%	positive Rh123 staining	143 to 145	greater than 70%	greater than 70%				
CC1(C)CC[C@]2(C(=O)O)CC[C@]3(C)C(=CC[C@@H]4[C@@]5(C)C[C@@H](OC(=O)c6cc7ccccc7oc6=O)[C@H](OC(=O)c6cc7ccccc7oc6=O)C(C)(C)[C@@H]5CC[C@]43C)[C@@H]2C1 [Compound 10]	greater than 70%	positive Rh123 staining	200 to 202	greater than 70%	greater than 70%	87.4 ± 1.7	6.2	89.3 ± 2.2	7.4 ± 0.7
